Inconclusive results and toxic doses are left out. Rule as the data show it: active = T/C of 150% or more; inactive = T/C below 125%.
Tested on: L1210 leukemia ip in BDF1 mice, survival T/C
Assay: NCI In Vivo Anticancer Drug Screen. Data for tumor model L1210 Leukemia (intraperitoneal) in B6D2F1 (BDF1) mice
Settings: endpoint: mean survival time, higher = longer survival
Outline: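 Survival endpoint. Drug-treated group vs vehicle group, expressed as T divided by C. Tumor passaged by transplantation.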

[1] = dose: 100.0 mg/kg/injection, schedule: Q01DX009 (ip), vehicle: Klucel (hydroxypropylcellulose) (HPC)
[2] = dose: 200.0 mg/kg/injection, schedule: Q01DX009 (ip), vehicle: Klucel (hydroxypropylcellulose) (HPC)
[3] = dose: 400.0 mg/kg/injection, schedule: Q01DX009 (ip), vehicle: Klucel (hydroxypropylcellulose) (HPC)
[4] = dose: 100.0 mg/kg/injection, schedule: Q04DX003 (ip), vehicle: Klucel (hydroxypropylcellulose) (HPC)
[5] = dose: 200.0 mg/kg/injection, schedule: Q04DX003 (ip), vehicle: Klucel (hydroxypropylcellulose) (HPC)
[6] = dose: 400.0 mg/kg/injection, schedule: Q04DX003 (ip), vehicle: Klucel (hydroxypropylcellulose) (HPC)
[7] = dose: 100.0 mg/kg/injection, schedule: Q01DX001 (ip), vehicle: saline
[8] = dose: 100.0 mg/kg/injection, schedule: Q04DX003 (ip), vehicle: saline
[9] = dose: 200.0 mg/kg/injection, schedule: Q04DX003 (ip), vehicle: saline
[10] = dose: 400.0 mg/kg/injection, schedule: Q04DX003 (ip), vehicle: saline
[11] = dose: 100.0 mg/kg/injection, schedule: Q04DX002 (ip), vehicle: saline
[12] = dose: 100.0 mg/kg/injection, schedule: Q01DX009 (ip), vehicle: saline with Tween-80

Measured: T/C

CCCNC(=O)Nc1ccc(OC)cc1Cl
inactive: [1] 93 % of control | [2] 93 % of control | [3] 93 % of control

CC(C)(c1ccccc1)C(C)(C)c1ccccc1
inactive: [1] 91 % of control | [4] 92 % of control | [5] 96 % of control | [3] 89 % of control | [6] 96 % of control

Cc1ccc(S(=O)(=O)Oc2ccc(Cl)cc2)cc1
inactive: [1] 102 % of control | [4] 105 % of control | [2] 98 % of control | [5] 97 % of control | [3] 102 % of control | [6] 101 % of control

CCCCN(C)N=Nc1ccc(Cl)cc1C(N)=O
inactive: dose: 100.0 mg/kg/injection, schedule: Q01DX001 (ip), vehicle: Klucel (hydroxypropylcellulose) (HPC) 102 % of control | [1] 110 % of control | [4] 109 % of control | dose: 200.0 mg/kg/injection, schedule: Q01DX001 (ip), vehicle: Klucel (hydroxypropylcellulose) (HPC) 107 % of control | [2] 105 % of control | [5] 96 % of control | dose: 400.0 mg/kg/injection, schedule: Q01DX001 (ip), vehicle: Klucel (hydroxypropylcellulose) (HPC) 98 % of control | [3] 105 % of control | [6] 93 % of control

COc1ccc(OC)c(NC(=O)c2ccc(N(CCc3cnc4nc(NC(C)=O)[nH]c(=O)c4n3)C(=O)C(F)(F)F)cc2)c1
inactive: dose: 100.0 mg/kg/injection, schedule: Q01DX009 (ip), vehicle: carboxymethylcellulose (CMC) 104 % of control | dose: 100.0 mg/kg/injection, schedule: Q04DX003 (ip), vehicle: other 97 % of control | dose: 200.0 mg/kg/injection, schedule: Q01DX009 (ip), vehicle: carboxymethylcellulose (CMC) 94 % of control | dose: 200.0 mg/kg/injection, schedule: Q04DX003 (ip), vehicle: other 97 % of control | dose: 400.0 mg/kg/injection, schedule: Q01DX009 (ip), vehicle: carboxymethylcellulose (CMC) 94 % of control | dose: 400.0 mg/kg/injection, schedule: Q04DX003 (ip), vehicle: other 92 % of control

NC(=S)NN=C1CCCCCCCCC1
inactive: [7] 102 % of control

C=CC(=C)CCC=C(C)C
inactive: dose: 25.0 mg/kg/injection, schedule: Q04DX003 (ip), vehicle: saline 101 % of control | dose: 50.0 mg/kg/injection, schedule: Q04DX003 (ip), vehicle: saline 101 % of control | [8] 97 % of control | [9] 87 % of control | [10] 86 % of control

CN(/N=C/c1ccccc1)C(=S)Nc1ccccc1
inactive: dose: 62.5 mg/kg/injection, schedule: Q04DX003 (ip), vehicle: Klucel (hydroxypropylcellulose) (HPC) 100 % of control | dose: 250.0 mg/kg/injection, schedule: Q04DX003 (ip), vehicle: Klucel (hydroxypropylcellulose) (HPC) 103 % of control

CCCCCN1CCCC(OC(=O)N(C)C)C1 (stereo not drawn)
inactive: dose: 25.0 mg/kg/injection, schedule: Q04DX002 (ip), vehicle: saline 106 % of control | dose: 50.0 mg/kg/injection, schedule: Q04DX002 (ip), vehicle: saline 103 % of control | [11] 86 % of control

O=C/C=C/c1ccc([N+](=O)[O-])cc1
inactive: [7] 104 % of control | [12] 98 % of control | dose: 200.0 mg/kg/injection, schedule: Q01DX001 (ip), vehicle: saline 102 % of control | dose: 400.0 mg/kg/injection, schedule: Q01DX001 (ip), vehicle: saline 102 % of control

Cc1nc2c(O)ccc(O)c2nc1C
inactive: dose: 3.12 mg/kg/injection, schedule: Q04DX003 (ip), vehicle: saline with Tween-80 100 % of control | dose: 6.25 mg/kg/injection, schedule: Q04DX003 (ip), vehicle: saline with Tween-80 96 % of control | dose: 12.5 mg/kg/injection, schedule: Q01DX009 (ip), vehicle: saline with Tween-80 94 % of control | dose: 12.5 mg/kg/injection, schedule: Q04DX003 (ip), vehicle: saline with Tween-80 100 % of control | dose: 25.0 mg/kg/injection, schedule: Q01DX009 (ip), vehicle: saline with Tween-80 96 % of control | dose: 50.0 mg/kg/injection, schedule: Q01DX009 (ip), vehicle: saline with Tween-80 94 % of control

Cc1cc2oc(/C=N/N3CCOCC3)c(C)c2cc1C
inactive: [1] 96 % of control | [4] 90 % of control | [2] 103 % of control | [5] 102 % of control | [3] 99 % of control | [6] 98 % of control

Clc1nc(Cl)c(Nc2ccn[nH]2)nc1Cl
inactive: [12] 91 % of control | dose: 200.0 mg/kg/injection, schedule: Q01DX009 (ip), vehicle: saline with Tween-80 86 % of control | dose: 400.0 mg/kg/injection, schedule: Q01DX009 (ip), vehicle: saline with Tween-80 94 % of control

O=CNCC(=O)O
inactive: [11] 92 % of control | [8] 97 % of control | dose: 200.0 mg/kg/injection, schedule: Q04DX002 (ip), vehicle: saline 95 % of control | [9] 94 % of control | dose: 400.0 mg/kg/injection, schedule: Q04DX002 (ip), vehicle: saline 92 % of control | [10] 106 % of control

O=P(CCC(O)c1ccccc1)(c1ccccc1)c1ccccc1 (stereo not drawn)
inactive: dose: 100.0 mg/kg/injection, schedule: Q01DX001 (ip), vehicle: saline with Tween-80 93 % of control | dose: 200.0 mg/kg/injection, schedule: Q01DX001 (ip), vehicle: saline with Tween-80 106 % of control | dose: 400.0 mg/kg/injection, schedule: Q01DX001 (ip), vehicle: saline with Tween-80 100 % of control

Cc1cccc(C2=CCCCC2)c1
inactive: dose: 50.0 mg/kg/injection, schedule: Q01DX001 (ip), vehicle: carboxymethylcellulose (CMC) 96 % of control | dose: 100.0 mg/kg/injection, schedule: Q01DX001 (ip), vehicle: carboxymethylcellulose (CMC) 102 % of control | dose: 200.0 mg/kg/injection, schedule: Q01DX001 (ip), vehicle: carboxymethylcellulose (CMC) 96 % of control

O=C(c1ccccc1)C1C(C(=O)c2ccccc2)N1C1CCCCC1 (stereo not drawn)
inactive: [4] 91 % of control | [5] 91 % of control | [6] 96 % of control

C=CC[As](C)(=O)O
inactive: dose: 100.0 mg/kg/injection, schedule: Q01DX009 (ip), vehicle: saline 109 % of control | dose: 200.0 mg/kg/injection, schedule: Q01DX009 (ip), vehicle: saline 94 % of control

CNC(=Nc1ccccc1)c1ccc(NC(=O)c2ccc(C(=O)Nc3ccc(C(=Nc4ccccc4)NC)cc3)cc2)cc1
inactive: dose: 15.0 mg/kg/injection, schedule: Q01DX Z (ip), vehicle: saline 100 % of control | dose: 30.0 mg/kg/injection, schedule: Q01DX Z (ip), vehicle: saline 105 % of control | dose: 60.0 mg/kg/injection, schedule: Q01DX Z (ip), vehicle: saline 102 % of control

COc1cc(N2C(=O)C=CC2=O)ccc1N1C(=O)C=CC1=O
inactive: dose: 5.0 mg/kg/injection, schedule: Q01DX001 (ip), vehicle: saline 111 % of control | dose: 10.0 mg/kg/injection, schedule: Q01DX001 (ip), vehicle: saline 111 % of control

O=P(Oc1ccccc1)(Oc1ccccc1)c1ccccc1
inactive: [4] 95 % of control | [5] 98 % of control | [6] 98 % of control

NC(=S)NN=C1CCSCC1
inactive: dose: 8.4 mg/kg/injection, schedule: Q01DX Z (ip), vehicle: methylcellulose (MC) 96 % of control | dose: 14.0 mg/kg/injection, schedule: Q01DX Z (ip), vehicle: methylcellulose (MC) 92 % of control | dose: 23.0 mg/kg/injection, schedule: Q01DX Z (ip), vehicle: methylcellulose (MC) 98 % of control | dose: 39.0 mg/kg/injection, schedule: Q01DX Z (ip), vehicle: methylcellulose (MC) 98 % of control
